{
  "source": "paper PMC4263767",
  "about": "“IL-28B is a Key Regulator of B- and T-Cell Vaccine Responses against Influenza” (PLoS Pathogens, 2014)",
  "key": {"[1]": {"tested_on": "PBMCs from healthy volunteers", "experiment": "IL-28A, IL-28B and IL-29 mRNA expression in H1N1-stimulated PBMCs", "type": "cell-based, human", "settings": "MMF various concentrations 2 h before 6 h H1N1; n = 25", "protocol": "(A) PBMCs from healthy volunteers were stimulated for six-hours with H1N1. mRNA-expression of IL-28A, IL-28B and IL-29 were normalized to non-stimulated controls and HPRT expression. Major (rs8099917 TT, n = 28) compared to minor (rs8099917 non-TT, n = 21) allele genotype. MWU-test determined statistically significant differences between groups. Bars show median values with interquartile range. (B) PBMCs from healthy volunteers (n = 25) were pre-treated with mycophenolate mofetil for 2 h prior to stimulated for six-hours with H1N1. mRNA-expression of IL-28A, IL-28B and IL-29 and statistical analysis were performed using the Kruskal Wallis (KW) test.\nIL-28B primers and probe were designed based on Homo sapiens IL-28B mRNA-sequence (NM_172139.2) using Primer3 Input (version 0.4.0) (http://frodo.wi.mit.edu/). The forward primer (IL-28BF1: […]) spans the exon/exon junction of exons 1 and 2 of IL-28B. The IL-28B-specific probe (IL-28B probe: […] ) is located in the second exon and the reverse primer (IL-28BR1: […]) is in the third exon of the IL-28B gene. […]\nThe specificity of the three sets of qRT PCR assays was tested against Invivogen expression plasmids containing complete IL-28A (puno1-hIL-28A), IL-28B (puno1-hIL-28B) and IL-29 (punoIL-29) sequences. The specificity of all qRT PCR assays has been previously assessed. […]"}, "transplant recipients": {"tested_on": "transplant recipients", "settings": "MMF; ref [28], [48]; cited from earlier work"}, "[2]": {"tested_on": "PBMCs from healthy volunteers", "type": "cell-based, human", "settings": "peptides 2 h prior to 5-day H1N1 stimulation, compared to peptide controls"}, "[3]": {"tested_on": "IL28RA (IL-28 receptor alpha subunit)", "experiment": "ELISA competition assay, binding of IL-28B to IL28RA", "settings": "for inhibition of IFN-λ / IL-28B binding to IL28RA (in words): peptides 10 µM, or increasing 10 nM to 100 µM; for binding affinity to IL28RA (in words): discussion", "from_the_text": "Recombinant IL28RA was coated on an ELISA plate and pre-treated with increasing concentrations of peptides. […] Anti-his secondary antibody was used to determine the relative amount of bound IFN-λ to the IL28RA. These dose-response curves allowed us to determine the effectiveness of binding inhibition of each peptide.\n(C) Inhibitory activity of peptides against IL-28B to IL28RA. […] Bars indicate median values, whiskers inter-quartile ranges. The graph represents three independently repeated experiments. (D) Inhibitory activity of scrambled peptides against IL-28B to IL28RA. ELISA was used to measure the binding of a fixed concentration of IL-28B (100 ng/mL) to the IL28RA challenged by a fixed concentration of control peptides (10 µM; s, scramble). The median value representing three independently repeated experiments is shown. Whiskers indicate the interquartile range."}, "IL28RA": {"tested_on": "IL28RA", "settings": "reference not given; cited from earlier work", "description": "An important strength of our study is the use of a clinical cohort including immunosuppressed transplant recipients to confirm our findings in the clinical setting. We then sought to define additional observations to support our clinical findings making our study unique. One limitation of our study is the heterogeneity of the transplant cohort due to a variety of underlying conditions leading to organ failure. […] In addition, we have shown that mycophenolate mofetil (MMF) and the IL-28B major-allele ..."}, "[4]": {"tested_on": "T-cells, monocytes and macrophages", "settings": "ref [18]–[21]; cited from earlier work", "description": "The IFN-λ family (Interleukin-28A, -28B, -29, and IFN-λ4) is a recently described class of IFNs with antiviral properties similar to IFN-α and -β [14]–[17]. IFN-λ is known to induce phosphorylation of STAT-1 and -2 via binding to its receptor, which is a heterodimer consisting of the IL-28 receptor alpha subunit (IL28RA) and IL-10 receptor beta subunit (IL10RB). […] Furthermore, IFN-λs induced the development of T-regu ... || IL-28B (IFN-λ3) belongs to the family of IFN-lambdas and shares antiviral properties similar to IFN-α via induction of interferon stimulated genes (ISGs) such as MX1 or OAS1 [41]. […] IL-12 is a key cytokine for the induction of Th1 cells and cytotoxic lymphocytes, [43]. SNPs in the IL-28B gene (minor-allele genotypes) have been associated with reduced IL-28B expression, [29]–[33], which could impact adaptive immune functions during vaccination. One limitation of our study is that we d ..."}, "H1N1 stimulated PBMCs": {"tested_on": "H1N1 stimulated PBMCs", "type": "cell-based, human", "settings": "control peptides added twice during expansion phase"}, "[5]": {"settings": "competition ELISA, IL-28B 100 ng/mL"}},
  "note": "“Also recorded” adds a separate entry of the source. Like-named read-outs stand apart in the source and are kept apart here.",
  "data": [
    {"compound": "COc1c(C)c2c(c(O)c1C/C=C(\\C)CCC(=O)OCCN1CCOCC1)C(=O)OC2", "note": "[MMF, mycophenolate mofetil]", "values": [
      {"measurement": "IFN-λ (IL-28A, IL-28B, IL-29) mRNA expression profiles", "setting": "[1]", "result": "no difference in IFN-λ expression profiles; also recorded: not influenced"},
      {"measurement": "effect on influenza vaccine responses", "setting": "transplant recipients", "result": "significantly suppress influenza vaccine responses"}
    ]},
    {"compound": "ASVTFNLFRLLTRDLKY [peptide 6]", "values": [
      {"measurement": "H1N1-induced IgG production (in words)", "setting": "[2]", "result": "ability to significantly increase in vitro H1N1-induced IgG production"},
      {"measurement": "inhibition of IFN-λ / IL-28B binding to IL28RA (in words)", "setting": "[3]; [5]", "result": "strong potential to inhibit binding of IFN-λs"},
      {"measurement": "binding affinity to IL28RA (in words)", "setting": "[3]", "result": "high binding affinities to IL28RA"}
    ]},
    {"compound": "ELASFKKARDALEESLKL [peptide 1]", "values": [
      {"measurement": "H1N1-induced IgG production (in words)", "setting": "[2]; listed as Peptides 1", "result": "strong trend for higher H1N1-induced IgG secretion"},
      {"measurement": "H1N1-induced IgG production (in words)", "setting": "[2]; listed as peptides 1", "result": "ability to significantly increase in vitro H1N1-induced IgG production"},
      {"measurement": "reduction of the binding of IL-28B to IL28RA", "setting": "[3]; competition ELISA, IL-28B 100 ng/mL, peptide 10 µM (S5C/S5D Figure), median of three independent experiments", "result": 71, "unit": "%"},
      {"measurement": "inhibition of IFN-λ / IL-28B binding to IL28RA (in words)", "setting": "[3]; [5]", "result": "potent specific dose dependent inhibitory blocking effect"},
      {"measurement": "inhibition of IFN-λ / IL-28B binding to IL28RA (in words)", "setting": "[3]; competition ELISA, IL-28B 100 ng/mL, listed as peptides 1", "result": "strong potential to inhibit binding of IFN-λs"},
      {"measurement": "binding affinity to IL28RA (in words)", "setting": "[3]", "result": "high binding affinities to IL28RA"}
    ]},
    {"compound": "IL-29: one of the IFN-λ family members", "values": [
      {"measurement": "binding affinity towards IL28RA compared to IL-28B", "setting": "IL28RA", "result": "significantly greater binding affinity"},
      {"measurement": "Th1 and Th2 cytokine producing T-cells", "setting": "[4]", "result": "increase Th1 and suppress Th2 cytokine producing T-cells"}
    ]},
    {"compound": "penetratin", "values": [
      {"measurement": "unspecific stimulatory effect on H1N1 stimulated IgG production", "setting": "H1N1 stimulated PBMCs", "result": "No unspecific effect could be observed"}
    ]}
  ]
}
